This passage reports Activity results from ChEMBL document CHEMBL1130935, “Synthesis of a paclitaxel isomer: C-2-acetoxy-C-4-benzoate paclitaxel” (Bioorg Med Chem Lett, 1998).

Active and inactive are the calls of the source. The rule behind the calls is not given here.

The target of the experiment is Tubulin alpha chain (Sus scrofa) (UniProt P02550). As to the kind of experiment: Compound was tested for inhibitory activity against tubulin by tubulin polymerization assay; Inactive. The class given is functional.
Tubulin alpha chain (Sus scrofa), sequence (P02550 whole entry, looked up): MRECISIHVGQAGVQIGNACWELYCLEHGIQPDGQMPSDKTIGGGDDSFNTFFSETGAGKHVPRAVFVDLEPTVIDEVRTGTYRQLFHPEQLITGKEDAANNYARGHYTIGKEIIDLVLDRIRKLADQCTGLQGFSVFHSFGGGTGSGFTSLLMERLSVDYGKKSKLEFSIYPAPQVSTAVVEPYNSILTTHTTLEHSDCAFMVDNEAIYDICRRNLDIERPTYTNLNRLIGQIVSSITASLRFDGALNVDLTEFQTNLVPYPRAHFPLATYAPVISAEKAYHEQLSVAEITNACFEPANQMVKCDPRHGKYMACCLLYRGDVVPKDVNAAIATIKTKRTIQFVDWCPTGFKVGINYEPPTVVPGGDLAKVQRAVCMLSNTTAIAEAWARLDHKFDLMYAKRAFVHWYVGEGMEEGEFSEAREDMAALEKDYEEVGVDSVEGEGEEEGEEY

Consider `CC(=O)O[C@H]1C(=O)[C@]2(C)[C@@H](O)CC3OC[C@@]3(OC(=O)c3ccccc3)[C@H]2[C@H](OC(C)=O)[C@]2(O)C[C@H](OC(=O)[C@H](O)[C@@H](NC(=O)c3ccccc3)c3ccccc3)C(C)=C1C2(C)C` (stereo partly specified), for which the result was inactive.
